Measurements from publication PMC12483148 (2025).

Columns and labels:
Experiment in all cases: BLI, steady state fit
[1] = tested on: TPP riboswitch (3'-biotinylated) (RNA, riboswitch) CAGUACUCGGGGUGCCCUUCUGCGUGAAGGCUGAGAAAUACCCGUAUCACCUGAUCUGGAUAAUGCCAGCGUAGGGAAGUGCUG; conditions: 150 mM Na+, 2 mM Mg2+, 10 mM HEPES pH 7.4, 0.005% Surfactant P20, RNA immobilised
[2] = tested on: FMN riboswitch (3'-biotinylated) (RNA, riboswitch) GAUCUUCAGGGCGGGGUGAAAUUCCCCACCGGCGGUACAGCCCGCGAGCCCAGGAAACUGGGCAGACUUGGUGAAACUCCAAGGCCGACAGUAAAGUCUGGAUGAAAGAAGAUC; conditions: 150 mM Na+, 2 mM Mg2+, RNA immobilised
[3] = tested on: SAM-I riboswitch (3'-biotinylated) (RNA, riboswitch) GGCUUAUCAAGAGAGGUGGAGGGACUGGCCCGACGAAACCCGGCAACCAGAAAUGGUGCCAAUUCCUGCAGCGGAAACGUUGAAAGAUGAGCCG; conditions: 150 mM Na+, 2 mM Mg2+, 10 mM HEPES pH 7.4, 0.005% Surfactant P20, RNA immobilised
[4] = 10 mM HEPES pH 7.4, 0.005% Surfactant P20

`Cc1ncc(C[n+]2csc(CCO)c2C)c(N)n1` was tested, and the “KD,stead” value ([1]; b29 says 10 μM) was 7.0 µM.
For `O=C(NCc1ccc[nH]1)c1ccc2[nH]cnc2c1`, the “KD,stead” value ([2]; HBS-P+ pH 7.4, 5% DMSO, apparent) was 14 µM.
In the case of `Nc1ncnc2c1ncn2[C@@H]1O[C@H](CSCC[C@H](N)C(=O)O)[C@@H](O)[C@H]1O`, the “KD,stead” value ([3]; highest concentration 500 μM) is reported as 545 µM.
For `O=c1cc(-c2cccs2)nc(C2CCCNC2)[nH]1` (stereo not shown), the “KD,stead” value [2, 4] was 48 µM.
With `C[S+](CC[C@H](N)C(=O)O)C[C@H]1O[C@@H](n2cnc3c(N)ncnc32)[C@H](O)[C@@H]1O` (stereo partly shown) the “KD,stead” value [3] was 0.17 µM.
For `Cc1cc2nc3c(=O)[nH]c(=O)nc-3n(C[C@H](O)[C@H](O)[C@H](O)COP(=O)(O)O)c2cc1C`, the “KD,stead” value [2, 4] was 0.043 µM.
`Cc1ncc(C[n+]2csc(CCOP(=O)(O)OP(=O)(O)O)c2C)c(N)n1` was tested, and the “KD,stead” value ([1]; single measurement, low signal-to-noise) was 0.016 µM.
